Read-outs that look alike come from different tables or passages of the source.
How the values were obtained:
[1] = test system: barnyardgrass; test: Test B pre-/postemergence herbicide test; assay type: in vivo, Echinochloa crus-galli; details: Echinochloa crus-galli; for pest or weed control at 125 g/ha: 125 g ai/ha; for pest or weed control at 500 g/ha: 500 g ai/ha
Summary of the method: (§1)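 Pre: seeds sown, then sprayed. Post: 1–4-leaf plants (2–18 cm) sprayed at the same time. Paddy: flooded, treated at 2-leaf stage. Formulation: non-phytotoxic solvent with surfactant. Greenhouse 13–15 days; visual 0–100 score relative to controls.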

[2] = test system: Surinam grass; test: Test B pre-/postemergence herbicide test; assay type: in vivo, Urochloa decumbens; details: Urochloa decumbens; for pest or weed control at 125 g/ha: 125 g ai/ha; for pest or weed control at 500 g/ha: 500 g ai/ha
Summary of the method: as §1

[3] = test system: cocklebur; test: Test B pre-/postemergence herbicide test; assay type: in vivo, Xanthium strumarium; details: Xanthium strumarium; for pest or weed control at 125 g/ha: 125 g ai/ha; for pest or weed control at 500 g/ha: 500 g ai/ha
Summary of the method: as §1

[4] = test system: large crabgrass; test: Test B pre-/postemergence herbicide test; assay type: in vivo, Digitaria sanguinalis; details: Digitaria sanguinalis; for pest or weed control at 125 g/ha: 125 g ai/ha; for pest or weed control at 500 g/ha: 500 g ai/ha
Summary of the method: as §1

[5] = test system: giant foxtail; test: Test B pre-/postemergence herbicide test; assay type: in vivo, Setaria faberi; details: Setaria faberi, 336 h; for pest or weed control at 125 g/ha: 125 g ai/ha; for pest or weed control at 500 g/ha: 500 g ai/ha
Summary of the method: as §1

[6] = test system: lambsquarters; test: Test B pre-/postemergence herbicide test; assay type: in vivo, Chenopodium album; details: Chenopodium album, 336 h; for pest or weed control at 125 g/ha: 125 g ai/ha; for pest or weed control at 500 g/ha: 500 g ai/ha
Summary of the method: as §1

[7] = test system: morningglory; test: Test B pre-/postemergence herbicide test; assay type: in vivo, Ipomoea coccinea; details: Ipomoea, 336 h; for pest or weed control at 125 g/ha: 125 g ai/ha; for pest or weed control at 500 g/ha: 500 g ai/ha
Summary of the method: as §1

[8] = test system: pigweed; test: Test B pre-/postemergence herbicide test; assay type: in vivo, Amaranthus retroflexus; details: Amaranthus retroflexus, 336 h; for pest or weed control at 125 g/ha: 125 g ai/ha; for pest or weed control at 500 g/ha: 500 g ai/ha
Summary of the method: as §1

[9] = test system: velvetleaf; test: Test B pre-/postemergence herbicide test; assay type: in vivo, Abutilon theophrasti; details: Abutilon theophrasti, 336 h; for pest or weed control at 125 g/ha: 125 g ai/ha; for pest or weed control at 500 g/ha: 500 g ai/ha
Summary of the method: as §1

[10] = test system: wheat; test: Test B postemergence herbicide test; assay type: in vivo, Triticum aestivum; details: Triticum aestivum, post-emergence, 336 h, postemergence, 500 g ai/ha; visual rating, scale 0 (no effect) to 100 (complete control); read-out: Wheat plant response rating
Summary of the method: (§2)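 Read-out: visual comparison with controls, scored 0 to 100, where 100 means complete control and 0 no effect. Formulated chemicals were applied postemergence to plants 2–18 cm tall (1- to 4-leaf), or to flooded-paddy plants at the 2-leaf stage, then held 13 to 15 days under glass.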

[11] = test system: wild oat; test: Test B postemergence herbicide test; assay type: in vivo, Avena fatua; details: Avena fatua, post-emergence, 336 h, postemergence, visual rating, scale 0 (no effect) to 100 (complete control), read-out: Oat, Wild plant response rating
Summary of the method: as §2

[12] = test system: rice; test: Test B flooded paddy test; assay type: in vivo, Oryza sativa; details: Oryza sativa, 336 h, 1000 g ai/ha, visual rating, scale 0 to 100 (0 no effect, 100 complete control), 13 to 15 days, read-out: Rice plant response rating
Summary of the method: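 Plants grow to 1- to 4-leaf stage (2–18 cm) for postemergence spraying, or to 2-leaf stage for the paddy test. Formulated compound is applied. Greenhouse holding lasts 13–15 days. Response is scored visually relative to controls, 0 no effect to 100 complete control; a dash means no result.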

[13] = test system: small flower umbrella sedge; test: Test B flooded paddy test; assay type: in vivo, Cyperus difformis; details: Cyperus difformis, 336 h, 1000 g ai/ha, visual rating, scale 0 to 100 (0 no effect, 100 complete control), 13 to 15 days, read-out: Sedge, Umbrella plant response rating
Summary of the method: as §2

[14] = test system: ducksalad; test: Test B flooded paddy test; assay type: in vivo, Heteranthera limosa; details: Heteranthera limosa, 336 h, 1000 g ai/ha, visual rating, scale 0 to 100 (0 no effect, 100 complete control), 13 to 15 days, read-out: Ducksalad plant response rating
Summary of the method: as §2

[15] = test system: barnyardgrass; test: Test B flooded paddy test; assay type: in vivo, Echinochloa crus-galli; details: Echinochloa crus-galli, 336 h, 1000 g ai/ha, visual rating, scale 0 to 100 (0 no effect, 100 complete control), 13 to 15 days, read-out: Barnyardgrass plant response rating
Summary of the method: as §2

[16] = post-emergence, postemergence, visual rating, scale 0 (no effect) to 100 (complete control), read-out: Barnyardgrass plant response rating
[17] = post-emergence, postemergence, visual rating, scale 0 (no effect) to 100 (complete control), read-out: Surinam Grass plant response rating
[18] = post-emergence, postemergence, visual rating, scale 0 (no effect) to 100 (complete control), read-out: Cocklebur plant response rating
[19] = post-emergence, postemergence, visual rating, scale 0 (no effect) to 100 (complete control), read-out: Crabgrass, Large plant response rating
[20] = post-emergence, postemergence, visual rating, scale 0 (no effect) to 100 (complete control), read-out: Foxtail, Giant plant response rating
[21] = post-emergence, postemergence, visual rating, scale 0 (no effect) to 100 (complete control), read-out: Lambsquarters plant response rating
[22] = post-emergence, postemergence, visual rating, scale 0 (no effect) to 100 (complete control), read-out: Morningglory plant response rating
[23] = post-emergence, postemergence, visual rating, scale 0 (no effect) to 100 (complete control), read-out: Pigweed plant response rating
[24] = post-emergence, postemergence, visual rating, scale 0 (no effect) to 100 (complete control), read-out: Velvetleaf plant response rating

CCn1nc(C(C)(C)C)cc1C(=O)Nc1cccc(C(=O)OC)n1 [Compound 143, methyl 6-[[[3-(1,1-dimethylethyl)-1-ethyl-1H-pyrazol-5-yl]carbonyl]amino]-2-pyridinecarboxylate] gave a pest or weed control at 125 g/ha [1, 16] of 0%, a pest or weed control at 500 g/ha [1, 16] of 0% and a pest or weed control at 500 g/ha ([1]; pre-emergence, visual rating 0-100, 0 no effect, 100 complete control, read-out: Plant response rating, Barnyardgrass) of 0%. For the same compound, the pest or weed control at 125 g/ha ([1]; pre-emergence, preemergence, 0 to 100 scale, 0 is no effect, 100 is complete control, read-out: Plant response rating, Barnyardgrass) was 0%, the pest or weed control at 125 g/ha [2, 17] was 10% and the pest or weed control at 500 g/ha [2, 17] was 10%. It also gave a pest or weed control at 500 g/ha ([2]; pre-emergence, visual rating 0-100, 0 no effect, 100 complete control, read-out: Plant response rating, Surinam Grass) of 0%, a pest or weed control at 125 g/ha ([2]; pre-emergence, preemergence, 0 to 100 scale, 0 is no effect, 100 is complete control, read-out: Plant response rating, Surinam Grass) of 0% and a pest or weed control at 125 g/ha [3, 18] of 0%. It also gave a pest or weed control at 500 g/ha [3, 18] of 0%, a pest or weed control at 500 g/ha ([3]; pre-emergence, visual rating 0-100, 0 no effect, 100 complete control, read-out: Plant response rating, Cocklebur) of 0% and a pest or weed control at 125 g/ha ([3]; pre-emergence, preemergence, 0 to 100 scale, 0 is no effect, 100 is complete control, read-out: Plant response rating, Cocklebur) of 0%. It also gave a pest or weed control at 125 g/ha [4, 19] of 0%, a pest or weed control at 500 g/ha [4, 19] of 0% and a pest or weed control at 500 g/ha ([4]; pre-emergence, visual rating 0-100, 0 no effect, 100 complete control, read-out: Plant response rating, Crabgrass, Large) of 0%. For the same compound, the pest or weed control at 125 g/ha ([4]; pre-emergence, preemergence, 0 to 100 scale, 0 is no effect, 100 is complete control, read-out: Plant response rating, Crabgrass, Large) was 0%, the pest or weed control at 125 g/ha [5, 20] was 0% and the pest or weed control at 500 g/ha [5, 20] was 0%. For the same compound, the pest or weed control at 500 g/ha ([5]; pre-emergence, visual rating 0-100, 0 no effect, 100 complete control, read-out: Plant response rating, Foxtail, Giant) was 0%, the pest or weed control at 125 g/ha ([5]; pre-emergence, preemergence, 0 to 100 scale, 0 is no effect, 100 is complete control, read-out: Plant response rating, Foxtail, Giant) was 0% and the pest or weed control at 125 g/ha [6, 21] was 0%. For the same compound, the pest or weed control at 500 g/ha [6, 21] was 20%, the pest or weed control at 500 g/ha ([6]; pre-emergence, visual rating 0-100, 0 no effect, 100 complete control, read-out: Plant response rating, Lambsquarters) was 0% and the pest or weed control at 125 g/ha ([6]; pre-emergence, preemergence, 0 to 100 scale, 0 is no effect, 100 is complete control, read-out: Plant response rating, Lambsquarters) was 0%. It also gave a pest or weed control at 125 g/ha [7, 22] of 0%, a pest or weed control at 500 g/ha [7, 22] of 0% and a pest or weed control at 500 g/ha ([7]; pre-emergence, visual rating 0-100, 0 no effect, 100 complete control, read-out: Plant response rating, Morningglory) of 0%. The pest or weed control at 125 g/ha ([7]; pre-emergence, preemergence, 0 to 100 scale, 0 is no effect, 100 is complete control, read-out: Plant response rating, Morningglory) was 0%, the pest or weed control at 125 g/ha [8, 23] was 0% and the pest or weed control at 500 g/ha [8, 23] was 20%. For the same compound, the pest or weed control at 500 g/ha ([8]; pre-emergence, visual rating 0-100, 0 no effect, 100 complete control, read-out: Plant response rating, Pigweed) was 0%, the pest or weed control at 125 g/ha ([8]; pre-emergence, preemergence, 0 to 100 scale, 0 is no effect, 100 is complete control, read-out: Plant response rating, Pigweed) was 0% and the pest or weed control at 125 g/ha [9, 24] was 0%. The pest or weed control at 500 g/ha [9, 24] was 20%, the pest or weed control at 500 g/ha ([9]; pre-emergence, visual rating 0-100, 0 no effect, 100 complete control, read-out: Plant response rating, Velvetleaf) was 0% and the pest or weed control at 125 g/ha ([9]; pre-emergence, preemergence, 0 to 100 scale, 0 is no effect, 100 is complete control, read-out: Plant response rating, Velvetleaf) was 0%. For the same compound, the plant injury at 500 g/ha [10] was 0%, the pest or weed control at 125 g/ha ([11]; 125 g ai/ha) was 0% and the pest or weed control at 500 g/ha ([11]; 500 g ai/ha) was 20%. It also gave a plant injury at 1000 g/ha [12] of 0%, a pest or weed control at 1000 g/ha [13] of 0% and a pest or weed control at 1000 g/ha [14] of 0%. The pest or weed control at 1000 g/ha [15] was 0%.
